{
  "source": "paper PMC11209693",
  "about": "(ACS Omega, 2024)",
  "key": {"pancreatic lipase [1]": {"molecular_target": "T1, pancreatic lipase (Homo sapiens, UniProt P16233)", "T1 sequence (P16233 17-465)": "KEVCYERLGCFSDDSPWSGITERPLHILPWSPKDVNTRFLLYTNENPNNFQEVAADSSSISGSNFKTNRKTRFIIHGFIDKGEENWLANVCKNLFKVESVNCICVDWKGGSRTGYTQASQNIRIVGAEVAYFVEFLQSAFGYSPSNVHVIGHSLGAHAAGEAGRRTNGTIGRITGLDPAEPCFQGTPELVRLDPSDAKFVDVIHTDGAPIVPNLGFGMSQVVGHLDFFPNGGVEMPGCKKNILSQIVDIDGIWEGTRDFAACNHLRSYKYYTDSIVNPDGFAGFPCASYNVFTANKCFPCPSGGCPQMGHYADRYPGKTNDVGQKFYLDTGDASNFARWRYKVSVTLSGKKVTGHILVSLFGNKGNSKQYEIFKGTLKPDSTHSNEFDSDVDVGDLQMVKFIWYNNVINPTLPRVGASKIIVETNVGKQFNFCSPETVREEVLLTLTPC", "assay": "microscale thermophoresis", "assay_type": "binding"}, "pancreatic lipase [2]": {"molecular_target": "T2, pancreatic lipase (Sus scrofa, UniProt P00591)", "T2 sequence (P00591 1-450)": "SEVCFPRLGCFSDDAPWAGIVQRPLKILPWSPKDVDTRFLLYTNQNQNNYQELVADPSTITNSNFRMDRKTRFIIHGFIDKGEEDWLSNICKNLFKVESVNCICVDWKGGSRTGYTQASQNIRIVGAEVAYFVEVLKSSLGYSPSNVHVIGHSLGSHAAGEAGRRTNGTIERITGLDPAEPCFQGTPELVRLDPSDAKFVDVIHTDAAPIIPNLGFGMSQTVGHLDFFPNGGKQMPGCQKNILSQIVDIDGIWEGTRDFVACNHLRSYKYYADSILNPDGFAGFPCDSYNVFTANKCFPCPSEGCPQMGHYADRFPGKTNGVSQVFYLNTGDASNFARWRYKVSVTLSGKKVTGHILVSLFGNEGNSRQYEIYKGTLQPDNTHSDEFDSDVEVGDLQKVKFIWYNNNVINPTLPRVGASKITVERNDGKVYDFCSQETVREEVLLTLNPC", "assay": "in vitro pancreatic lipase inhibition assay", "assay_type": "biochemical"}},
  "data": [
    {"smiles": "COc1cc(/C=C/C(=O)CC(=O)/C=C/c2ccc(O)c(OC)c2)ccc1O", "note": "[A6, curcumin, reference compound]", "values": [
      {"measurement": "Kd", "setting": "pancreatic lipase [1]", "value": 23.5, "unit": "µM"}
    ]},
    {"smiles": "O=C(CCc1ccc(O)cc1)CC(=O)CCc1ccc(O)cc1", "note": "[C4, 1,7-bis(4-hydroxyphenyl)heptane-3,5-dione]", "values": [
      {"measurement": "IC50", "setting": "pancreatic lipase [2]", "value": 42.8, "unit": "µM"},
      {"measurement": "Kd", "setting": "pancreatic lipase [1]", "value": 2.91, "unit": "µM"}
    ]},
    {"smiles": "COc1cc(CCC(=O)CC(=O)CCc2ccc(O)c(OC)c2)ccc1O", "note": "[C6, 1,7-bis(4-hydroxy-3-methoxyphenyl)heptane-3,5-dione]", "values": [
      {"measurement": "IC50", "setting": "pancreatic lipase [2]", "value": 98.6, "unit": "µM"},
      {"measurement": "Kd", "setting": "pancreatic lipase [1]", "value": 18.2, "unit": "µM"}
    ]}
  ]
}
